Measurements published in PubChem BioAssay AID2060502 (Molecular Pharmacology Branch, DTP, NCI, 2025).

Test system: 885724-159-R-J1-PDC complex spheroid viability
Assay: Anticancer human tumor 885724-159-R-J1-PDC patient-derived pancreatic adenocarcinoma cell line growth inhibition [GQUAD]
Conditions: for IC50: curve of first compound; for viability, T/C: stronger effect = lower value
Outline: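 Multi-cell-type spheroids of tumor cells with HUVEC and mesenchymal stem cells, treated with drug combinations. Concentrations descend in half-log steps from near clinical Cmax, or from 10 microM where Cmax is unknown; viability read-out.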

[1] = second compound 0.0316 µM, first compound 0.0316 µM
[2] = second compound 0.0316 µM, first compound 0.316 µM
[3] = second compound 0.1 µM, first compound 0.0316 µM
[4] = second compound 0.1 µM, first compound 0.316 µM
[5] = second compound 0.316 µM, first compound 0.0316 µM
[6] = second compound 0.316 µM, first compound 0.316 µM
[7] = second compound 1 µM, first compound 0.0316 µM
[8] = second compound 1 µM, first compound 0.316 µM
[9] = second compound 3.16 µM, first compound 0.0316 µM
[10] = second compound 3.16 µM, first compound 0.316 µM
[11] = second compound 10 µM, first compound 0.0316 µM
[12] = second compound 10 µM, first compound 0.316 µM
[13] = second compound 0.0316 µM, first compound 0.000999 µM
[14] = second compound 0.0316 µM, first compound 0.00316 µM
[15] = second compound 0.0316 µM, first compound 0.00999 µM
[16] = second compound 0.0316 µM, first compound 0.0999 µM
[17] = second compound 0.1 µM, first compound 0.000999 µM
[18] = second compound 0.1 µM, first compound 0.00316 µM
[19] = second compound 0.1 µM, first compound 0.00999 µM
[20] = second compound 0.1 µM, first compound 0.0999 µM
[21] = second compound 0.316 µM, first compound 0.000999 µM
[22] = second compound 0.316 µM, first compound 0.00316 µM
[23] = second compound 0.316 µM, first compound 0.00999 µM
[24] = second compound 0.316 µM, first compound 0.0999 µM
[25] = second compound 1 µM, first compound 0.000999 µM
[26] = second compound 1 µM, first compound 0.00316 µM
[27] = second compound 1 µM, first compound 0.00999 µM
[28] = second compound 1 µM, first compound 0.0999 µM
[29] = second compound 3.16 µM, first compound 0.000999 µM
[30] = second compound 3.16 µM, first compound 0.00316 µM
[31] = second compound 3.16 µM, first compound 0.00999 µM
[32] = second compound 3.16 µM, first compound 0.0999 µM
[33] = second compound 10 µM, first compound 0.000999 µM
[34] = second compound 10 µM, first compound 0.00316 µM
[35] = second compound 10 µM, first compound 0.00999 µM
[36] = second compound 10 µM, first compound 0.0999 µM
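Further: spheroids exposed to agents for seven days before readout.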
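Wherever viability, T/C is given: percent of vehicle control viability where 100% = DMSO wells.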

`C=CC(=O)N1CCN(c2nc(=O)n(-c3c(C)ccnc3C(C)C)c3nc(-c4c(O)cccc4F)c(F)cc23)C(C)C1` (stereo unspecified) + CN(C)c1ccc(Nc2c3ccc(NC(=O)CCN4CCCC4)cc3nc3cc(NC(=O)CCN4CCCC4)ccc23)cc1 gave an IC50 (second compound 0.0316 µM) of over 10 µM, an IC50 (second compound 0.1 µM) of over 10 µM and an IC50 (second compound 0.316 µM) of over 10 µM. The IC50 (second compound 1 µM) was over 10 µM, the IC50 (second compound 3.16 µM) was over 10 µM and the IC50 (second compound 10 µM) was over 10 µM. The viability, T/C [1] was 98.5%, the viability, T/C (second compound 0.0316 µM, first compound 0.1 µM) was 101% and the viability, T/C [2] was 96.2%. For the same compound, the viability, T/C (second compound 0.0316 µM, first compound 1 µM) was 93.4%, the viability, T/C (second compound 0.0316 µM, first compound 3.16 µM) was 103% and the viability, T/C (second compound 0.0316 µM, first compound 10 µM) was 95.6%. It also gave a viability, T/C [3] of 101%, a viability, T/C (second compound 0.1 µM, first compound 0.1 µM) of 106% and a viability, T/C [4] of 96.5%. For the same compound, the viability, T/C (second compound 0.1 µM, first compound 1 µM) was 98.5%, the viability, T/C (second compound 0.1 µM, first compound 3.16 µM) was 107% and the viability, T/C (second compound 0.1 µM, first compound 10 µM) was 87.5%. The viability, T/C [5] was 90.5%, the viability, T/C (second compound 0.316 µM, first compound 0.1 µM) was 95.3% and the viability, T/C [6] was 82.6%. It also gave a viability, T/C (second compound 0.316 µM, first compound 1 µM) of 82.5%, a viability, T/C (second compound 0.316 µM, first compound 3.16 µM) of 103% and a viability, T/C (second compound 0.316 µM, first compound 10 µM) of 89.2%. It also gave a viability, T/C [7] of 86.2%, a viability, T/C (second compound 1 µM, first compound 0.1 µM) of 79.4% and a viability, T/C [8] of 70.6%. It also gave a viability, T/C (second compound 1 µM, first compound 1 µM) of 79.3%, a viability, T/C (second compound 1 µM, first compound 3.16 µM) of 85.3% and a viability, T/C (second compound 1 µM, first compound 10 µM) of 82.3%. For the same compound, the viability, T/C [9] was 67%, the viability, T/C (second compound 3.16 µM, first compound 0.1 µM) was 74.1% and the viability, T/C [10] was 84.4%. The viability, T/C (second compound 3.16 µM, first compound 1 µM) was 69.4%, the viability, T/C (second compound 3.16 µM, first compound 3.16 µM) was 83.8% and the viability, T/C (second compound 3.16 µM, first compound 10 µM) was 79.6%. It also gave a viability, T/C [11] of 64.8%, a viability, T/C (second compound 10 µM, first compound 0.1 µM) of 76% and a viability, T/C [12] of 85.2%. The viability, T/C (second compound 10 µM, first compound 1 µM) was 84.6%, the viability, T/C (second compound 10 µM, first compound 3.16 µM) was 87.6% and the viability, T/C (second compound 10 µM, first compound 10 µM) was 73.3%.

`CC[C@@]1(O)C(=O)OCc2c1cc1n(c2=O)Cc2cc3c(CN(C)C)c(O)ccc3nc2-1` + CN(C)c1ccc(Nc2c3ccc(NC(=O)CCN4CCCC4)cc3nc3cc(NC(=O)CCN4CCCC4)ccc23)cc1 was tested, and the IC50 (second compound 0.0316 µM) was over 0.316 µM, the IC50 (second compound 0.1 µM) was over 0.316 µM and the IC50 (second compound 0.316 µM) was over 0.316 µM. For the same compound, the IC50 (second compound 1 µM) was over 0.316 µM, the IC50 (second compound 3.16 µM) was over 0.316 µM and the IC50 (second compound 10 µM) was over 0.316 µM. The viability, T/C [13] was 100%, the viability, T/C [14] was 93.2% and the viability, T/C [15] was 97.2%. The viability, T/C [1] was 93.6%, the viability, T/C [16] was 76.7% and the viability, T/C [2] was 67.7%. It also gave a viability, T/C [17] of 95.9%, a viability, T/C [18] of 98.6% and a viability, T/C [19] of 100%. The viability, T/C [3] was 84.2%, the viability, T/C [20] was 78% and the viability, T/C [4] was 67.2%. For the same compound, the viability, T/C [21] was 78.5%, the viability, T/C [22] was 86.1% and the viability, T/C [23] was 83.2%. The viability, T/C [5] was 82.1%, the viability, T/C [24] was 89.6% and the viability, T/C [6] was 63.9%. It also gave a viability, T/C [25] of 76.4%, a viability, T/C [26] of 82.3% and a viability, T/C [27] of 76.9%. For the same compound, the viability, T/C [7] was 65.4%, the viability, T/C [28] was 87.2% and the viability, T/C [8] was 62.4%. It also gave a viability, T/C [29] of 81.3%, a viability, T/C [30] of 70.5% and a viability, T/C [31] of 74.8%. The viability, T/C [9] was 66.3%, the viability, T/C [32] was 67.9% and the viability, T/C [10] was 51.6%. It also gave a viability, T/C [33] of 89.7%, a viability, T/C [34] of 87.5% and a viability, T/C [35] of 77.3%. It also gave a viability, T/C [11] of 79.8%, a viability, T/C [36] of 73.7% and a viability, T/C [12] of 52.4%.

`CCc1c2c(nc3ccc(O)cc13)-c1cc3c(c(=O)n1C2)COC(=O)[C@]3(O)CC` + CN(C)c1ccc(Nc2c3ccc(NC(=O)CCN4CCCC4)cc3nc3cc(NC(=O)CCN4CCCC4)ccc23)cc1 gave an IC50 (second compound 0.0316 µM) of 0.0568 µM, an IC50 (second compound 0.1 µM) of 0.0595 µM and an IC50 (second compound 0.316 µM) of 0.0488 µM. The IC50 (second compound 1 µM) was 0.0238 µM, the IC50 (second compound 3.16 µM) was 0.0217 µM and the IC50 (second compound 10 µM) was 0.02 µM. The viability, T/C [13] was 93.4%, the viability, T/C [14] was 78.9% and the viability, T/C [15] was 66.8%. For the same compound, the viability, T/C [1] was 56.9%, the viability, T/C [16] was 50.8% and the viability, T/C [2] was 9.22%. It also gave a viability, T/C [17] of 93.7%, a viability, T/C [18] of 72.2% and a viability, T/C [19] of 63.6%. The viability, T/C [3] was 59.7%, the viability, T/C [20] was 51.1% and the viability, T/C [4] was 7.61%. For the same compound, the viability, T/C [21] was 83.1%, the viability, T/C [22] was 73.1% and the viability, T/C [23] was 63.9%. It also gave a viability, T/C [5] of 48.1%, a viability, T/C [24] of 51.6% and a viability, T/C [6] of 9.1%. It also gave a viability, T/C [25] of 83.3%, a viability, T/C [26] of 65% and a viability, T/C [27] of 56.6%. For the same compound, the viability, T/C [7] was 47.4%, the viability, T/C [28] was 41.8% and the viability, T/C [8] was 9.11%. It also gave a viability, T/C [29] of 67.1%, a viability, T/C [30] of 60.4% and a viability, T/C [31] of 53.7%. It also gave a viability, T/C [9] of 42.7%, a viability, T/C [32] of 40.1% and a viability, T/C [10] of 8.41%. The viability, T/C [33] was 71%, the viability, T/C [34] was 70.1% and the viability, T/C [35] was 50.2%. It also gave a viability, T/C [11] of 42.9%, a viability, T/C [36] of 39.2% and a viability, T/C [12] of 9.18%.
